According to patent US20090197906A1, “REVERSION OF MALIGNANT PHENOTYPE WITH 9-HYDROXY ELLIPTICINE DERIVATIVES” (priority 2006, published 2009):

Columns and labels:
[1] = test system: actin in NIH 3T3 EF extract; experiment: fluorescence anisotropy assay of actin dynamics in cell extract; type: biochemical; conditions: for k (rate constant of F-actin elongation) / Δ mA (anisotropy enhancement, steady state F-actin): malignant NIH 3T3 EF extract
Description: Actin dynamics is known to be impaired in tumor cells with a subsequent decrease of F-actin to G-actin ratio. Actin dynamics has been quantified in tumor cell extracts using the fluorescence anisotropy assay which gains access to rate constant of F-actin elongation (k) and steady state concentration of F-actin (Δ mA).
All reactions were carried out at 22° C. and fluorescence anisotropy signal was recovered at 520 nm with excitation at 490 nm in a Beacon 2000 (Panvera). Alexa 488 actin (Molecular Probes) was centrifuged at 35 000 rpm for 2 h at 4° C. to sediment residual actin polymers in a Beckman L5-50B ultracentrifuge. […] 80% of the supernatant was withdrawn; the concentration was defined through fluorescence measurements (excitation at 490 nm and signal recovering at 520 nm). The ultracentrifuged actin concentration was calculated using the non ultracentrifuged Alexa 488 actin as a standard. The supernatant was aliquoted, frozen in liquid nitrogen and stored at −80° C.
Before experiment, an aliquot of ultracentrifuged Alexa 488 actin was diluted to a concentration of […] in G buffer (5 mM Tris pH 8.1, 2 mM CaCl2, 0.2 mM DTT, 0.2 mM ATP). 3 μl of diluted Alexa 488 actin was mixed in 168 μl of G buffer and actin monomers anisotropy was measured before the addition of 4 μl of polymerisation buffer (2.5 M KCl, 50 mM MgCl2, 25 mM ATP), 5 μl of G buffer in the presence or in the absence of the chemical molecule and 20 μl cellular extract of normal NIH 3T3 cells or malignant NIH 3T3 EF cells at 2 mg/ml. The final concentration of Alexa 488 actin was 4 nM. The ratio of unlabelled to labelled actin was about 140/4 nM. Measurements were made each 10 sec for 200 sec. Actin monomers anisotropy value was subtracted, yielding the anisotropy enhancement (Δ mA). The data were fitted with the equation Y=Ymax. [1−exp(−K.X)]. The curves start at zero and ascend to Ymax that corresponds to the steady state anisotropy value (Δ mA eq), with a rate constant K. Y is anisotropy values of which monomers anisotropy is subtracted and X is the time.

NIH 3T3 EF cells = experiment: F-actin network rescue, FITC-phalloidin fluorescence microscopy; type: cell-based; conditions: non cytotoxic concentrations (100 nM and 200 nM), three days
Description: Malignant NIH 3T3 EF cells were seeded onto glass cover slips at a density of 2000 cells per cm^2. The next day, BA016DD537 was applied to NIH 3T3 EF cells at various non cytotoxic concentrations (100 nM and 200 nM). Three days later, cells were fixed for 10 min in PBS containing 3.7% formaldehyde at 4° C. before examination with a fluorescence microscope. The formaldehyde solution was neutralized with 50 mM NH4Cl. Extraction was carried out for 4 min with 0.4% Triton X-100 in PBS. Cells were incubated for 1 h with blocking buffer (3% bovine serum albumin in PBS) and then for 20 min with FITC-phalloidin (Sigma) at room temperature. Cover slips were mounted in Vectashieldk (Zymed) and observed through a fluorescence microscope (Nikon).

B16F10 [2] = experiment: MTT cell proliferation assay; type: cell-based, murine
Description: Growth studies were performed using the [3-(4,5 dimethylthiazol-2-yl)-2,5-diphenyl-2H-tetrazolium bromide] (Sigma) calorimetric assay.
About 1500 to 5000 cells, according to the cell line, were seeded in a 96-well culture plate 24 hours before adding increasing concentrations of BA016DD537 or BA016FZ539. The plate was incubated at 37° C. for 3 days. 10 μl MTT stock solution (5 mg/ml in phosphate buffer saline) was added to 90 μl of complete medium in each well, the incubation was continued for 3 h at 37° C. 100 μl of lysis buffer (10% sodium dodecyl sulfate, 1% HCl 1N; pH 4.7) was added to each well, and the plate was incubated overnight. The absorbance was determined using an Integrated EIA Management System (Labsystem) at a wavelength of 570 nm. The proliferation rates were calculated from the OD readings using the untreated cells as 100%.
Growth studies were performed using both MTT and SRB calorimetric assay (Sigma). About 1500 B16F10 or 3000 pancreatic cells (MIA PaCa-2 and PANC1) were seeded in a 96-well culture plate before adding increasing concentrations of monomesylate or bimesylate.
The plates were incubated at 37° C. for 3 days and then were treated depending on SRB or MTT protocols (see material and methods).
In these two cases, the proliferation rates were calculated from the OD readings using the untreated cells as 100%.

NIH 3T3 EF = experiment: cloning assay in methylcellulose (colony formation); type: cell-based; conditions: read-out: Inhibition of colony formation (methylcellulose) IC50
Description: (§1) Cells were embedded in complete culture medium supplemented with 0.8% methylcellulose (Methocel MC4000, Sigma), seeded in triplicate into 35-mm dishes (Greiner Bio-one Ref 627102, Dominique Dutscher) and incubated at 37° C. in a humidified 5% CO2 atmosphere. The number of cells seeded was 1000 cells per dish. After one to three weeks, according to cell lines, macroscopic clones were counted.

B16F10 [3] = experiment: as above; type: cell-based, murine
Description: as §1
Cells were embedded in complete culture medium supplemented with 0.8% methyl-cellulose (Methocel MC4000, Sigma), seeded in triplicate into 35-mm dishes and incubated at 37° C. in a humidified 5% CO2 atmosphere. The number of cells seeded was 1000 cells per dish. After 9 days, macroscopic clones of murine melanoma cell line B16F10 were counted.

Melanoma B16 cells = experiment: antitumor activity, i.p. grafted B16 melanoma, survival; type: in vivo, B6D2F1 mice
Description: Antitumor activity against B16 melanoma can be assessed in mice using i.p. graft of malignant cells followed by i.p. treatment. This type of protocol which by-pass various biodisponibility parameters gives information roughly on the maximal antitumor activity which can be expected for a given tumor.
Melanoma B16 cells (4×10^5) were injected in B6D2F1 mice using i.p. route at J0. Drugs, dissolved in sterile distilled water (0.5 ml) were injected daily using as well i.p. route from J1 to J9 at various concentrations. Control mice received distilled water only according the same protocol.
Treated and control mice were counted daily. TIC (mean survival of treated mice/mean survival of control mice) was calculated at J9.

B16BL6 = experiment: cloning assay in methylcellulose (colony formation); type: cell-based; conditions: read-out: Inhibition of colony formation (methylcellulose) IC50
Description: as §1

SK-N-MC = experiment: as above; type: cell-based; conditions: read-out: Inhibition of colony formation (methylcellulose) IC50
Description: as §1

With `Cc1c2cc[n+](CCN3CCCCC3)cc2c(C)c2c1[nH]c1ccc(O)cc12.[Cl-]` [BA016DD537, 2-(β-piperidinoethyl)-9-hydroxyellipticinium chloride] the “effect on actin-F elongation rate constant and actin-F steady state value” ([1]; NIH 3T3 EF cytosolic fractions) was “increases the actin-F elongation rate constant and the actin-F steady state value”, the “k (rate constant of F-actin elongation)” value ([1]; compound at 100 nM) was 0.1636 s⁻¹ and the “Δ mA (anisotropy enhancement, steady state F-actin)” value ([1]; compound at 100 nM) was 52.38. For the same molecule, the “k (rate constant of F-actin elongation)” value ([1]; compound at 200 nM) was 0.1737 s⁻¹, the “Δ mA (anisotropy enhancement, steady state F-actin)” value ([1]; compound at 200 nM) was 61.17 and the “rebuilding of actin network / morphology” value (NIH 3T3 EF cells) was “able to rebuilt actin network in tumor cells at non cytotoxic concentration”. For the same molecule, the IC50 (B16F10 [2]; B16F10, 3 days, read-out: Cytotoxic effect (MTT) IC50) was 500 nM, the IC50 (NIH 3T3 EF) was 30 nM and the IC50 (B16F10 [3]; B16F10, read-out: Inhibition of colony formation (methylcellulose) IC50) was 35 nM. The “T/C (%) (mean survival of treated mice/mean survival of control mice)” value (Melanoma B16 cells; 0.39 mg/kg/inj. i.p. daily J1 to J9) was 133%, the “T/C (%) (mean survival of treated mice/mean survival of control mice)” value (Melanoma B16 cells; 0.78 mg/kg/inj. i.p. daily J1 to J9) was 149% and the “T/C (%) (mean survival of treated mice/mean survival of control mice)” value (Melanoma B16 cells; 1.56 mg/kg/inj. i.p. daily J1 to J9) was 168%. The “T/C (%) (mean survival of treated mice/mean survival of control mice)” value (Melanoma B16 cells; 3.12 mg/kg/inj. i.p. daily J1 to J9) was 217%, the “T/C (%) (mean survival of treated mice/mean survival of control mice)” value (Melanoma B16 cells; 6.25 mg/kg/inj. i.p. daily J1 to J9) was 196% and the “T/C (%) (mean survival of treated mice/mean survival of control mice)” value (Melanoma B16 cells; 7.5 mg/kg/inj. i.p. daily J1 to J9) was 210%. For the same molecule, the “T/C (%) (mean survival of treated mice/mean survival of control mice)” value (Melanoma B16 cells; 10 mg/kg/inj. i.p. daily J1 to J9) was 87% and the “antitumor activity against B16 melanoma (T/C>125% = significant)” value (Melanoma B16 cells; i.p. graft, i.p. treatment) was “marked antitumor activity”.
`CS(=O)(=O)[O-].Cc1c2cc[n+](CCN3CCCCC3)cc2c(C)c2c1[nH]c1ccc(O)cc12` [BA016FZ539, 2-(betapiperidino-2-ethyl)-9-hydroxyellipticinium methanesulfonate] gave an IC50 (B16F10 [2]; B16F10 (Example 11), read-out: IC50 (MTT Test-72 h)) of 2000 nM, an IC50 (B16BL6) of 29 nM and an IC50 (SK-N-MC) of 205 nM. For the same molecule, the IC50 (B16F10 [3]; B16F10, clones counted after 9 days (Example 11), listed as Monomesylate, read-out: B16F10 Inhibition of colony formation IC50) was 67 nM.
